From US8198323B2, “Curcumin analogues and uses thereof” (The University of North Carolina at Chapel Hill, priority 2004, dated 2012)
Where a chain is given by its changes, count along the chain named. Entries after “also recorded” stand apart in the source; their conditions may differ. Each block holds one compound with its values, some of them ahead of it.

Tests used:
Format in all cases: cell-based
wild type AR [1] = target: T1, wild type AR (Homo sapiens, UniProt P10275); experiment: AR transactivation assay (MMTV-luciferase), PC-3 cells transfected with wild-type AR; design: expressed in transfected cells; host or cells: PC-3; conditions: PC-3 cell assay system; FIG. 3A
T1 sequence (P10275 1-920): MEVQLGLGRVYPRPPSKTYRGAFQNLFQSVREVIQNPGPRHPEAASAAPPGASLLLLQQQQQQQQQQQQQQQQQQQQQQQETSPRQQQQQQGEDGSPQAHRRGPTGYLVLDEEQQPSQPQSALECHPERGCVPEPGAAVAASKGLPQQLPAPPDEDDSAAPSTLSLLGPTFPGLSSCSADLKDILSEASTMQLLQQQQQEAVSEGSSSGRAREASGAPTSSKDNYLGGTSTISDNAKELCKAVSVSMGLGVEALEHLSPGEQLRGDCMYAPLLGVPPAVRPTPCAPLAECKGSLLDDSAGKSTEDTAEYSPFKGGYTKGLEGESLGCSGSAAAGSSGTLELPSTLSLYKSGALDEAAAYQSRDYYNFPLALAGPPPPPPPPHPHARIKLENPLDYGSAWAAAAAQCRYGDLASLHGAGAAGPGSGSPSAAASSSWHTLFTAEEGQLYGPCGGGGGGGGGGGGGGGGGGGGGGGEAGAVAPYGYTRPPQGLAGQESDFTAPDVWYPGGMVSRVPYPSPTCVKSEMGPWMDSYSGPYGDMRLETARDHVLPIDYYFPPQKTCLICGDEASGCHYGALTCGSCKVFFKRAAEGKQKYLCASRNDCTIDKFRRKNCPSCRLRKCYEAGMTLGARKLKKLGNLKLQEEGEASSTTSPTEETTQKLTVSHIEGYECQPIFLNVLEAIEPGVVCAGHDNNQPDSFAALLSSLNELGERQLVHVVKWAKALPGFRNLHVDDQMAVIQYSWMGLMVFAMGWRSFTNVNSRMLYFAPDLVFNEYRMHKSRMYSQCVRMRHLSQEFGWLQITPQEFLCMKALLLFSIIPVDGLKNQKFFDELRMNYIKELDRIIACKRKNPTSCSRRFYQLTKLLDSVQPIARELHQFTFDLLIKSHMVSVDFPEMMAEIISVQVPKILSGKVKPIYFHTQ
Description: (§1) Cell Culture and Transfections. Human prostate cancer DU145 and PC-3 cells were maintained in Dulbecco's minimum essential medium (DMEM) containing penicillin (25 units/mL), streptomycin (25 μg/mL), and 10% fetal calf serum (FCS). For AR transactivation assay, PC-3 cells were transfected with an AR expression plasmid and reporter gene. Because of a low content of endogenous AR coactivators, DU-145 cells were transfected with expression plasmids for AR and ARA70, and reporter gene.
Transfections were performed using the SuperFect kit according to manufacturer's procedures (Qiagen, Chatsworth, Calif.). Briefly, 1×10^5 cells were plated on 35-mm dishes 24 h before transfection, and then a reporter plasmid, MMTV-Luciferase, which contains MMTV-LTR promoter and AR-binding element, was co-transfected with an AR expression plasmid (wild type or mutant), or pSG5ARA70. PRL-TK was used as an internal control for transfection efficiency. The total amount of DNA was adjusted to […] with pSG5 in all transcriptional activation assays. After a 2 h transfection, the medium was changed to DMEM-10% charcoal stripped serum medium, and 14-16 h later, the cells were treated with DHT, antiandrogen, or test compounds. After another 14-16 h, the cells were harvested and tested for luciferase activity in luciferase assays (Promega, Dual Luciferase Assay System, Madison, Wis.). […]

mutant LNCaP AR = target: T2, mutant LNCaP AR (Homo sapiens, UniProt P10275, T878A); experiment: AR transactivation assay (MMTV-luciferase), DU-145 cells transfected with mutant LNCaP AR and ARA70; conditions: FIG. 3B
T2 construct: expressed in transfected cells; host or cells: DU-145
T2 sequence (P10275 1-920 T878A): T1 sequence (P10275 1-920) with T878A
Description: Cell Culture and Transfections. Human prostate cancer DU145 and PC-3 cells were maintained in Dulbecco's minimum essential medium (DMEM) containing penicillin (25 units/mL), streptomycin (25 μg/mL), and 10% fetal calf serum (FCS). For AR transactivation assay, PC-3 cells were transfected with an AR expression plasmid and reporter gene. Because of a low content of endogenous AR coactivators, DU-145 cells were transfected with expression plasmids for AR and ARA70, and reporter gene. The conditions were followed as previously described in Miyamoto et al., Proc. Natl. Acad. Sci. USA, 95, 7379-7384 (1998), with minor modifications.
(§2) Transfections were performed using the SuperFect kit according to manufacturer's procedures (Qiagen, Chatsworth, Calif.). Briefly, 1×10^5 cells were plated on 35-mm dishes 24 h before transfection, and then a reporter plasmid, MMTV-Luciferase, which contains MMTV-LTR promoter and AR-binding element, was co-transfected with an AR expression plasmid (wild type or mutant), or pSG5ARA70. PRL-TK was used as an internal control for transfection efficiency. The total amount of DNA was adjusted to […] with pSG5 in all transcriptional activation assays. After a 2 h transfection, the medium was changed to DMEM-10% charcoal stripped serum medium, and 14-16 h later, the cells were treated with DHT, antiandrogen, or test compounds. After another 14-16 h, the cells were harvested and tested for luciferase activity in luciferase assays (Promega, Dual Luciferase Assay System, Madison, Wis.). Data were expressed in relative luciferase activity as compared to an internal luciferase positive control.

wild type AR [2] = target: T1, wild type AR; experiment: AR transactivation assay (MMTV-luciferase), DU-145 cells transfected with wild-type AR and ARA70; design: expressed in transfected cells; host or cells: DU-145; conditions: FIG. 3C; for antiandrogen activity (in words): DU-145 cells, wild-type AR and ARA70; for reduction (antiandrogen activity): DU-145 cells transfected with wild-type AR and ARA70
Description: as §1, §2

mutant AR in LNCaP cells = target: T3, mutant AR in LNCaP cells (Homo sapiens, UniProt P10275, T878A); experiment: LNCaP AR transactivation assay / LNCaP cell growth assay (Table 2); conditions: 1 nM DHT, symbols 0, +, ++ not defined
T3 construct: LNCaP cells, which express a clinically relevant mutant AR; endogenous in cells; host or cells: LNCaP
T3 sequence (P10275 1-920 T878A): T1 sequence (P10275 1-920) with T878A
Description: (§3) Cell culture and transfection—Human prostate cancer LNCaP and PC-3 cells were maintained in RPMI medium and Dulbecco's minimum essential medium (DMEM), respectively. Both media were strengthened with penicillin (25 units/mL), streptomycin (25 μg/mL), and 10% fetal calf serum. Androgen receptor transactivation assay, an androgen-dependent reporter gene transcription test, was employed as the primary screening for potential antiandrogen identification. This assay was first performed in LNCaP cells, which express a clinically relevant mutant AR. Once potential compounds were indicated by LNCaP AR transactivation assay, they were re-examined for their potential activity against wild type AR. Wild type AR transactivation assay was performed in PC-3 host cells, which lack an endogenous, functional AR.
(§4) Our previously described conditions for cell transfection were followed (Ohtsu et al, J Medicinal Chem 45: 5037-5042 (2002); Ohtsu et al., Bioorganic & Medicinal Chemistry 11:5083-5090 (2003)). In brief, cells were plated in 24- or 48-well tissue culture dishes twenty-four (PC-3 cells) or forty-eight (LNCaP cells) hours prior to transfection. Subsequently, LNCaP cells were transfected with a reporter gene, MMTV-luciferase, which contains MMTV-LTR promoter and androgen receptor binding element, and PRL-SV40, which served as an internal control for transfection efficiency. PC-3 cells were transfected with a wild type AR expression plasmid, pSG5AR, in addition to the above-mentioned MMTV-luciferase reporter gene and PRL-SV40 internal control. SuperFect (Qiagen, Chatsworth, Calif.) was employed as the transfection reagent following manufacturer's recommendations. At the end of a five-hour transfection, the medium was changed to DMEM or RPMI supplemented with 10% charcoal dextran-stripped, androgen-depleted serum. Twenty-four hours later, the cells were treated with 1 nM of DHT and/or test compounds at the designated concentration for another twenty-four hours. The cells were harvested for luciferase activity assay using Dual Luciferase Assay System (Promega, Madison, Wis.). The derived data were expressed as relative luciferase activity normalized to the internal luciferase control. DHT incubation induced a marked expression of reporter gene.
LNCaP cell growth assay thus was used as an alternative to confirm potential antiandrogens identified by the above-mentioned AR transactivation assay. An MTT analysis, relying upon the conversion of a colorless substrate to reduced tetrazolium by the mitochondrial dehydrogenase, was used. The experimental conditions were detailed elsewhere (Ohtsu et al., Bioorganic & Medicinal Chemistry 11:5083-5090 (2003)). Briefly, cells were plated in 96-well tissue culture plates and then incubated for 5 consecutive days in the presence of 1 nM of DHT and/or test compounds in 10% charcoal dextran-stripped serum-containing RPMI. At the end of incubation, the cells were given MTT (5 mg/ml in PBS) for three hours at 37° C. The resultant precipitate was dissolved in a lysis buffer and then quantitated at a wavelength of 595 nm using a microplate reader. To ensure the accuracy of data derived from the MTT analysis, cell count was performed using duplicate samples.

wild type AR [3] = target: T1, wild type AR; experiment: Wild type AR transactivation assay in PC-3 host cells (Table 2); design: expressed in transfected cells; host or cells: PC-3; conditions: PC-3 cells transfected with wild type AR, 1 nM DHT; symbols 0, +, ++ not defined
Description: as §3, §4

Compound: COc1cc(/C=C/C(=O)/C=C(O)/C=C/c2ccc(O)c(OC)c2)ccc1O [Compound 1, Curcumin]
antagonistic activity against the AR (in words) (wild type AR [1]): inactive | antagonistic activity against the AR (in words) (mutant LNCaP AR): inactive | antiandrogen activity (in words) (wild type AR [2]): inactive; also recorded: not active

Compound: COc1cc(C=CC(=O)CC(=O)C=Cc2ccc(OC)c(OC)c2)ccc1O [Compound 9, Monomethylcurcumin]
antagonistic activity against the AR (in words) (mutant LNCaP AR): significantly less active than 4

Compound: COC(=O)COc1ccc(C=CC(=O)CC(=O)C=Cc2ccc(OCC(=O)OC)c(OC)c2)cc1OC [Compound 20]
reduction (antiandrogen activity) (wild type AR [2]): 54% | antiandrogen activity (in words) (wild type AR [2]): comparable or more potent antiandrogen activity than HF

Compound: CCOC(=O)CCC(C(=O)C=Cc1ccc(O)c(OC)c1)C(=O)C=Cc1ccc(O)c(OC)c1 (centres unmarked) [Compound 22]
reduction (antiandrogen activity) (wild type AR [2]): 53.8% | antiandrogen activity (in words) (wild type AR [2]): comparable or more potent antiandrogen activity than HF

Compound: COc1ccc(C(=O)CC(=O)c2ccc(OC)c(OC)c2)cc1OC [Compound 39, 1,3-bis(3,4-dimethoxyphenyl)-1,3-propandione]
antagonistic activity against the AR (in words) (wild type AR [1]): less active than 4 | antagonistic activity against the AR (in words) (mutant LNCaP AR): less active than 4 | antiandrogen activity (in words) (wild type AR [2]): comparable or more potent antiandrogen activity than HF

Compound: COc1cc(/C=C/C(=O)/C=C/c2ccc(O)c(OC)c2)ccc1O [LL-10]
anti-AR activity, wrAR/PC3 (wild type AR [3]): 0

Compound: COc1cc(/C=C/C(O)=C/C(=O)/C=C/c2ccc(O)cc2)ccc1O [LL-18]
anti-AR activity, LNCaP (mutant AR in LNCaP cells): 0

Compound: COc1ccc(/C=C/C(=O)/C=C(O)/C=C/c2ccc(OC)c(O)c2)cc1O [LL-27B]
anti-AR activity, LNCaP (mutant AR in LNCaP cells): 0

Compound: COc1ccc(/C=C/C(=O)/C=C(O)/C=C/c2ccc(OC)c(OC)c2OC)c(OC)c1OC [LL-32B]
anti-AR activity, LNCaP (mutant AR in LNCaP cells): 0

Compound: COc1ccc(/C=C/C(=O)CC(O)/C=C/c2ccc(OC)c(OC)c2)cc1OC (centres unmarked) [LL-55]
anti-AR activity, wrAR/PC3 (wild type AR [3]): 0

Other lines, results leading:

anti-AR activity, LNCaP (mutant AR in LNCaP cells): 0
Compound: COc1ccc(/C=C/C(=O)/C=C(O)/C=C/c2ccc(OC)cc2F)c(F)c1 [HOJ-9]

anti-AR activity, wrAR/PC3 (wild type AR [3]): 0
Compound: O=C(/C=C(O)/C=C/c1ccc(O)o1)/C=C/c1ccc(O)o1 [LL-7]

anti-AR activity, LNCaP (mutant AR in LNCaP cells): 0
Compound: COc1cc(/C=C/C(O)=C/C(=O)/C=C/c2ccc(OC)c(OC)c2)ccc1O [LL-17]

anti-AR activity, LNCaP (mutant AR in LNCaP cells): 0
Compound: COc1ccc(/C=C/C(=O)/C=C(O)/C=C/c2ccc(OC)c(OC)c2OC)cc1OC [LL-35]

anti-AR activity, LNCaP (mutant AR in LNCaP cells): 0
Compound: COc1cc(OC)c(OC)cc1/C=C/C(O)=C/C(=O)/C=C/c1ccc(OC)c(OC)c1 [LL-36]

anti-AR activity, wrAR/PC3 (wild type AR [3]): 0
Compound: COc1ccc(/C=C/C(=O)C(C)(F)C(=O)/C=C/c2ccc(OC)c(OC)c2)cc1OC [LL-62]

anti-AR activity, wrAR/PC3 (wild type AR [3]): 0
Compound: CCOC(=O)/C=C/C(C(=O)/C=C/c1ccc(O)c(OC)c1)=C(O)\C=C\c1ccc(O)c(OC)c1 [LL-66]
